Results: PubChem BioAssay AID248 (DTP/NCI, 2004)
Where “and” joins values, the source holds several entries; their conditions need not be identical. Identical values can stand only once. Toxic doses and inconclusive results are not listed. Rule as the data show it: active = T/C of 150% or more; inactive = T/C below 125%.

Test system: L1210 leukemia ip in BDF1 mice, survival T/C
Test: NCI In Vivo Anticancer Drug Screen. Data for tumor model L1210 Leukemia (intraperitoneal) in B6D2F1 (BDF1) mice
Details: endpoint: mean survival time, higher = longer survival
Method in brief: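 Antitumor effect is assessed in tumor-bearing animals. Survival in the compound arm is compared with a vehicle-dosed control arm and expressed as their quotient.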

[1] = dose: 100.0 mg/kg/injection, schedule: Q04DX002 (ip), vehicle: Klucel (hydroxypropylcellulose) (HPC)
[2] = dose: 200.0 mg/kg/injection, schedule: Q04DX002 (ip), vehicle: Klucel (hydroxypropylcellulose) (HPC)
[3] = dose: 400.0 mg/kg/injection, schedule: Q04DX002 (ip), vehicle: Klucel (hydroxypropylcellulose) (HPC)

Measured: T/C

O=C1/C(=C/c2ccncc2)CCCc2ccccc21
inactive: dose: 6.25 mg/kg/injection, schedule: Q04DX003 (ip), vehicle: Klucel (hydroxypropylcellulose) (HPC) 98 % of control | dose: 12.5 mg/kg/injection, schedule: Q04DX003 (ip), vehicle: Klucel (hydroxypropylcellulose) (HPC) 97 % of control | dose: 25.0 mg/kg/injection, schedule: Q04DX003 (ip), vehicle: Klucel (hydroxypropylcellulose) (HPC) 97 % of control | dose: 200.0 mg/kg/injection, schedule: Q04DX003 (ip), vehicle: carboxymethylcellulose (CMC) 100 % of control

COc1ccc2c(c1)C(=O)CC(C)N2S(=O)(=O)c1ccc(C)cc1 (centres undefined)
inactive: dose: 18.75 mg/kg/injection, schedule: Q04DX002 (ip), vehicle: Klucel (hydroxypropylcellulose) (HPC) 95 % of control | dose: 37.5 mg/kg/injection, schedule: Q04DX002 (ip), vehicle: Klucel (hydroxypropylcellulose) (HPC) 113 % of control | dose: 75.0 mg/kg/injection, schedule: Q04DX002 (ip), vehicle: Klucel (hydroxypropylcellulose) (HPC) 103 % of control | dose: 150.0 mg/kg/injection, schedule: Q04DX002 (ip), vehicle: Klucel (hydroxypropylcellulose) (HPC) 98 % of control and 103 % of control | dose: 300.0 mg/kg/injection, schedule: Q04DX002 (ip), vehicle: Klucel (hydroxypropylcellulose) (HPC) 87 % of control

COc1cc(C(=O)NC2CC(C)CC(C)(C)C2)cc(OC)c1OC (centres undefined)
inactive: dose: 100.0 mg/kg/injection, schedule: Q01DX009 (ip), vehicle: Klucel (hydroxypropylcellulose) (HPC) 91 % of control | [1] 92 % of control | dose: 200.0 mg/kg/injection, schedule: Q01DX009 (ip), vehicle: Klucel (hydroxypropylcellulose) (HPC) 91 % of control | [2] 98 % of control | dose: 400.0 mg/kg/injection, schedule: Q01DX009 (ip), vehicle: Klucel (hydroxypropylcellulose) (HPC) 91 % of control | [3] 103 % of control

CC(=O)OC1C=C2CCC3C(CCC4(C)C(OC(C)=O)CCC34)C2(C)CC1 (centres undefined)
inactive: dose: 12.5 mg/kg/injection, schedule: Q01DX009 (ip), vehicle: Klucel (hydroxypropylcellulose) (HPC) 92 % of control | dose: 25.0 mg/kg/injection, schedule: Q01DX009 (ip), vehicle: Klucel (hydroxypropylcellulose) (HPC) 92 % of control | dose: 50.0 mg/kg/injection, schedule: Q01DX009 (ip), vehicle: Klucel (hydroxypropylcellulose) (HPC) 90 % of control | dose: 75.0 mg/kg/injection, schedule: Q01DX009 (ip), vehicle: Klucel (hydroxypropylcellulose) (HPC) 101 % of control | dose: 115.0 mg/kg/injection, schedule: Q01DX009 (ip), vehicle: Klucel (hydroxypropylcellulose) (HPC) 98 % of control | dose: 170.0 mg/kg/injection, schedule: Q01DX009 (ip), vehicle: Klucel (hydroxypropylcellulose) (HPC) 95 % of control

CCCCCOB(OCCCCC)OCCCCC
inactive: dose: 50.0 mg/kg/injection, schedule: Q01DX001 (ip), vehicle: carboxymethylcellulose (CMC) 93 % of control | dose: 100.0 mg/kg/injection, schedule: Q01DX001 (ip), vehicle: carboxymethylcellulose (CMC) 95 % of control | dose: 200.0 mg/kg/injection, schedule: Q01DX001 (ip), vehicle: carboxymethylcellulose (CMC) 93 % of control | dose: 400.0 mg/kg/injection, schedule: Q01DX001 (ip), vehicle: carboxymethylcellulose (CMC) 98 % of control

O=C1OC(=O)C2(Br)C3C=CC(CC3)C12Br (centres undefined)
inactive: dose: 100.0 mg/kg/injection, schedule: Q04DX003 (ip), vehicle: saline with Tween-80 93 % of control | dose: 200.0 mg/kg/injection, schedule: Q04DX003 (ip), vehicle: saline with Tween-80 96 % of control | dose: 400.0 mg/kg/injection, schedule: Q04DX003 (ip), vehicle: saline with Tween-80 98 % of control

COC(=O)c1cc(C)n(C)c(=O)c1CNC(=O)c1ccccc1
inactive: dose: 100.0 mg/kg/injection, schedule: Q01DX009 (ip), vehicle: saline 97 % of control | dose: 100.0 mg/kg/injection, schedule: Q04DX003 (ip), vehicle: saline 107 % of control | dose: 200.0 mg/kg/injection, schedule: Q01DX009 (ip), vehicle: saline 96 % of control | dose: 200.0 mg/kg/injection, schedule: Q04DX003 (ip), vehicle: saline 97 % of control | dose: 400.0 mg/kg/injection, schedule: Q01DX009 (ip), vehicle: saline 97 % of control | dose: 400.0 mg/kg/injection, schedule: Q04DX003 (ip), vehicle: saline 91 % of control

Cc1ncc(/C=N/O)n1Cc1ccccc1
inactive: dose: 100.0 mg/kg/injection, schedule: Q01DX001 (ip), vehicle: other 97 % of control and 90 % of control | [1] 98 % of control | dose: 100.0 mg/kg/injection, schedule: Q04DX002 (ip), vehicle: other 94 % of control and 96 % of control | dose: 100.0 mg/kg/injection, schedule: Q04DX003 (ip), vehicle: other 97 % of control | dose: 200.0 mg/kg/injection, schedule: Q01DX001 (ip), vehicle: other 94 % of control and 97 % of control | [2] 94 % of control | dose: 200.0 mg/kg/injection, schedule: Q04DX002 (ip), vehicle: other 99 % of control and 105 % of control | dose: 200.0 mg/kg/injection, schedule: Q04DX003 (ip), vehicle: other 97 % of control and 100 % of control | dose: 400.0 mg/kg/injection, schedule: Q01DX001 (ip), vehicle: other 93 % of control and 91 % of control | [3] 105 % of control | dose: 400.0 mg/kg/injection, schedule: Q04DX002 (ip), vehicle: other 99 % of control and 92 % of control | dose: 400.0 mg/kg/injection, schedule: Q04DX003 (ip), vehicle: other 89 % of control and 90 % of control

NC(=O)c1nc(-c2ccccc2)c(-c2ccccc2)[nH]c1=O
inactive: dose: 100.0 mg/kg/injection, schedule: Q01DX009 (ip), vehicle: saline with Tween-80 104 % of control | dose: 200.0 mg/kg/injection, schedule: Q01DX009 (ip), vehicle: saline with Tween-80 95 % of control | dose: 400.0 mg/kg/injection, schedule: Q01DX009 (ip), vehicle: saline with Tween-80 96 % of control

NCCCNCCO
inactive: dose: 100.0 mg/kg/injection, schedule: Q01DX001 (ip), vehicle: saline 102 % of control | dose: 200.0 mg/kg/injection, schedule: Q01DX001 (ip), vehicle: saline 111 % of control | dose: 400.0 mg/kg/injection, schedule: Q01DX001 (ip), vehicle: saline 105 % of control

CCNC(=O)OC1C=CS(=O)(=O)C1 (centres undefined)
inactive: dose: 100.0 mg/kg/injection, schedule: Q04DX002 (ip), vehicle: saline 106 % of control | dose: 200.0 mg/kg/injection, schedule: Q04DX002 (ip), vehicle: saline 92 % of control | dose: 400.0 mg/kg/injection, schedule: Q04DX002 (ip), vehicle: saline 106 % of control

CNC(C)Cc1ccccc1 (centres undefined)
inactive: dose: 1.87 mg/kg/injection, schedule: Q04DX003 (ip), vehicle: saline 103 % of control and 116 % of control | dose: 3.75 mg/kg/injection, schedule: Q01DX009 (ip), vehicle: saline 95 % of control | dose: 3.75 mg/kg/injection, schedule: Q04DX003 (ip), vehicle: saline 106 % of control and 116 % of control | dose: 7.5 mg/kg/injection, schedule: Q01DX009 (ip), vehicle: saline 103 % of control and 98 % of control | dose: 7.5 mg/kg/injection, schedule: Q04DX003 (ip), vehicle: saline 108 % of control and 97 % of control | dose: 15.0 mg/kg/injection, schedule: Q01DX009 (ip), vehicle: saline 100 % of control and 96 % of control | dose: 15.0 mg/kg/injection, schedule: Q04DX003 (ip), vehicle: saline 95 % of control and 111 % of control | dose: 30.0 mg/kg/injection, schedule: Q01DX009 (ip), vehicle: saline 109 % of control and 112 % of control | dose: 30.0 mg/kg/injection, schedule: Q04DX003 (ip), vehicle: saline 92 % of control and 111 % of control | dose: 60.0 mg/kg/injection, schedule: Q01DX009 (ip), vehicle: saline 107 % of control and 108 % of control | dose: 60.0 mg/kg/injection, schedule: Q04DX003 (ip), vehicle: saline 95 % of control

CCN1C(/C=C/c2ccc(O)c3ncccc23)CCC2CC(C)CCC21 (centres undefined)
inactive: dose: 75.0 mg/kg/injection, schedule: Q01DX001 (ip), vehicle: saline 117 % of control | dose: 150.0 mg/kg/injection, schedule: Q01DX001 (ip), vehicle: saline 119 % of control | dose: 300.0 mg/kg/injection, schedule: Q01DX001 (ip), vehicle: saline 120 % of control
